Measurements as given in patent publication US11254685B2, “Abuse-resistant long-acting release opioid prodrugs” (priority 2017, dated 2022).
Where two headings read alike, the source gives them in different places.

Legend:
[1] = Pharmacokinetic study in rats, single intramuscular injection, plasma prodrug and parent drug by LC-MS/MS; format: in vivo, Sprague-Dawley rats
Experimental: General Procure: The formulations of opioid ester prodrugs are prepared to provide 180 mg/ml suspension by adding 1.8 g of prodrug to a 50 ml glass vial. To the solids is added […] of injection vehicle (2-3% sodium CMC, 0.2% polysorbate 20 in phosphate buffered saline (PBS) pH 7). The resulting mixture is sonicated for 10 min and left standing. The contents of the vial is then shaken until a uniform, clump-free suspension is obtained prior to dosing.
Twelve male Male Sprague-Dawley rats with a body weight approximately 250 g are used in the study. A single intramuscular injection of ester prodrug (180 mg) is administered to rats. Blood samples is collected at 0 (pretreatment) 0.5, 1, 2, 4, 8, 12 and 24 days after administration. Blood is collected with commercially available plastic tubes containing a clot activator. Within 10 min of collection, blood is centrifugation at 2.500 g for 10 min. Plasma is separated and frozen at −18° C. until analyzed by LC-MS/MS. Both prodrug and its corresponding parent drug are analyzed. The pharmacokinetic parameters (AUC, Tmax, Cmax, T1/2, etc) of the test articles are compared to compare the performance of prodrugs to their parent drugs.
Pharmacokinetic Studies for Compounds 2, 3, and 7. Pharmacokinetic studies were conducted for three compounds (Compounds 2, 3 and 7) in rats. The formulations were prepared either in sesame oil (Compound 2, 100 mg eq/mL) or aqueous suspension (Compounds 3 and 7, 100 mg eq/mL and 60 mg eq/mL, respectively). The dosage “eq” refers to the equivalent dosing amount of the respective parent drug, e.g., oxymorphone or hydromorphone in this Example. The sesame oil formulation contains 1.2% benzyl alcohol. The suspension formulation was prepared in PBS buffer containing 2% CMC and 0.2% Tween 80. The particle sizes of the testing compounds in suspension were kept under 10 micron. Both oil and suspension formulations were sterilized by electronic beam before administered to Sprague-Dawley rats.
Twelve Male Sprague-Dawley rats with body weight of approximately 250 gram were randomly divided into three groups. The rats were housed in cages for at least 5 days prior to entering the study and had free access to standard pellets and water during the period. The formulations (0.05 mL) were administered to rats by intra muscular injection via hind leg. Blood (0.10 mL) was sampled by individual tail vein puncture at the following time points: 0.5, 2, 8 hours, 1, 3, 6, 13, 27 days post-dose. Blood was collected into K2EDTA coated tubes and centrifuged at 4° C. at 2000 g in for 10 min to obtain plasma. Plasma (0.05 mL) was immediately quenched with 100 uL methanol/acetonitrile (1:1) containing 50 ng/mL ISTD (Terfenadine and Buspirone). The mixture was vortexed for 1 min and centrifuged at 4000 rpm for 15 min. Supernatant was diluted 2 fold with 0.1% FA in water for injection. Both prodrug and the drug were analyzed using LC-MS/MS on AB Sciex API 5500. The pharmacokinetic parameters were calculated and reported as following.

[2] = monomeric fatty acid, aqueous; Vorum et al. 1992; cited from earlier work
[3] = analyte prodrug Compound 7 in plasma, Compound 7 IM 102.5 mg/kg, aqueous suspension, N = 4, mean
[4] = male, Sprague-Dawley, rat, analyte prodrug Compound 7 in plasma, Compound 7 IM 102.5 mg/kg, aqueous suspension, N = 4, mean
[5] = analyte prodrug Compound 3 in plasma, Compound 3 IM 119.14 mg/kg, aqueous suspension, N = 4, mean
[6] = oxymorphone / Compound 3, Compound 3 IM 119.14 mg/kg, N = 4, mean
[7] = analyte prodrug Compound 2 in plasma, Compound 2 IM 29.7 mg/kg, sesame oil formulation, Rat #14
[8] = analyte prodrug Compound 2 in plasma, Compound 2 IM 118.11 mg/kg, sesame oil formulation, Rat #1-3, mean
[9] = oxymorphone / Compound 2, Compound 2 IM 29.7 mg/kg, Rat #14
[10] = oxymorphone / Compound 2, Compound 2 IM 118.11 mg/kg, Rat #1-3, mean

With `CCCCCCCCCCCCCCCCCCCC(=O)Oc1ccc2c3c1O[C@H]1C(=O)CC[C@H]4[C@@H](C2)N(C)CC[C@]314` [Compound 7, Hydromorphone eicosanate] the “AUC Extr” value [1, 3] was 4.36%, the AUCInf/D [1, 3] was 27.8 kg·ng·h/mL/mg and the AUC(0-inf) [1, 4] was 2850 ng·h/mL. It also gave an AUC(0-t) [1, 4] of 2760 ng·h/mL, an MRT inf [1, 4] of 138 h and a half-life [1, 4] of 64.4 h. The Cmax ([1]; male, Sprague-Dawley, rat, analyte prodrug Compound 7 in plasma, Compound 7 IM 102.5 mg/kg, aqueous suspension, N = 4, mean, read-out: Cmax) was 45.6 ng/mL and the tmax ([1]; male, Sprague-Dawley, rat, analyte prodrug Compound 7 in plasma, Compound 7 IM 102.5 mg/kg, aqueous suspension, N = 4, mean, read-out: tmax) was 6.13 h.

In the case of Oxymorphone eicosanate [Compound 3], the “AUC Extr” value ([1]; analyte parent drug oxymorphone in plasma, Compound 3 IM 119.14 mg/kg, aqueous suspension, N = 4, mean) is reported as 63.7%, the “AUC Extr” value [1, 5] is reported as 29.9% and the AUCInf [1, 5] is reported as 2355 ng·h/mL. It also gave an AUCInf/D [1, 5] of 19.8 kg·ng·h/mL/mg, an AUClast [1, 5] of 1711 ng·h/mL and a Cmax [1, 5] of 4.79 ng/mL. The MRTInf [1, 5] was 484 h, the t1/2 [1, 5] was 263 h and the tmax [1, 5] was 212 h. For the same molecule, the “AUClast Ratio (Parent/Pro)” value [1, 6] was 4.44 and the “Cmax Ratio (Parent/Pro)” value [1, 6] was 3.22.

For `CCCCCCCCCCCC(=O)O` [laurate], the solubility [2] is given as “greater than 500 μM”.

For Oxymorphone hexadecanate [Compound 2], the “AUC Extr” value ([1]; analyte parent drug oxymorphone in plasma, Compound 2 IM 29.7 mg/kg, sesame oil formulation, Rat #14) was 0.99%, the “AUC Extr” value ([1]; analyte parent drug oxymorphone in plasma, Compound 2 IM 118.11 mg/kg, sesame oil formulation, Rat #1-3, mean) was 5.71% and the “AUC Extr” value [1, 7] was 42.6%. For the same molecule, the AUCInf [1, 7] was 30.3 ng·h/mL, the AUCInf/D [1, 7] was 1.02 kg·ng·h/mL/mg and the AUClast [1, 7] was 17.4 ng·h/mL. For the same molecule, the Cmax [1, 7] was 0.54 ng/mL, the MRTInf [1, 7] was 108 h and the t1/2 [1, 7] was 76 h. The tmax [1, 7] was 2.00 h, the “AUC Extr” value [1, 8] was 39.8% and the AUCInf [1, 8] was 101 ng·h/mL. It also gave an AUCInf/D [1, 8] of 0.857 kg·ng·h/mL/mg, an AUClast [1, 8] of 51.3 ng·h/mL and a Cmax [1, 8] of 1.62 ng/mL. For the same molecule, the MRTInf [1, 8] was 156 h, the t1/2 [1, 8] was 130 h and the tmax [1, 8] was 3.50 h. For the same molecule, the “AUClast Ratio (Parent/Pro)” value [1, 9] was 151, the “Cmax Ratio (Parent/Pro)” value [1, 9] was 21 and the “AUClast Ratio (Parent/Pro)” value [1, 10] was 161. The “Cmax Ratio (Parent/Pro)” value [1, 10] was 63.7.

In the case of `CCCCCCCCCCCCCC(=O)O` [myristate], the solubility [2] is listed as 20 to 30 µM.
